Literature values as cited in US11234935B2, “Method of inducing satiety” (PERORA GMBH, priority 2015, dated 2022).

Details: rat feeding study; independent from intake

SMILES: CCCCCCCCCCCCCCCCCC(=O)OCC(COC(=O)CCCCCCCCCCCCCCCCC)OC(=O)CCCCCCCCCCCCCCCCC [tristearin]
- true digestibility of stearic acid from tristearin: 0.15 g/g
